According to patent US20210353648A1, “GRAPIPRANT UNIT DOSAGE FORMS” (Arrys Therapeutics, Inc., priority 2018, published 2021):
Read-outs that look alike come from different tables or passages of the source.

Test: Phase 1 crossover food effect study of 375 mg grapiprant tablets: pharmacokinetics
Type: in vivo, human
Conditions: for AUC(0-inf) / Cmax / AUC(0-t) / half-life / Tmax: human, serum, po, 375 mg, single oral dose, healthy subjects (N = 12); for AUC(0-inf) / Cmax / AUC(0-t) / half-life: arithmetic mean; for AUC(0-t): read-out: AUC(0-tlast); for half-life: read-out: t½ (converted); for Tmax: median
Experimental: This study was a randomized, open-label, single dose, 2-period crossover design. Each subject participated in 2 study periods. In each study period, subjects received a dose of 375 mg administered as 3×125 mg tablets of grapiprant under fasted or fed conditions in a crossover manner according to a randomized dosing sequence. The fed condition consisted of a standardized high-fat meal. Following an initial screening period of no longer than 28 days, 12 eligible subjects were to be randomized to the 2 treatment sequences and 2 treatment period sessions as shown in Table 6-1.
In each study period, subjects received 375 mg grapiprant (as 3×125 mg tablets) under either fed or fasted conditions. Each subject received 2 single doses: Day 1 and Day 8.
Blood samples were collected at the following times: 0 (just prior to dosing), 0.5, 1, 1.5, 2, 2.5, 3, 4, 6, 8, 12, 16, 24 and 48 hours following each dosing. The primary pharmacokinetic endpoints of the study were AUC(0-tlast) (area under the serum concentration-time curve from time 0 to the time of the last quantifiable concentration), AUC(0-inf) (AUC from time 0 to infinite time), and Cmax (maximum observed serum concentration) of serum grapiprant. The secondary pharmacokinetic endpoints of the study were Tmax (the time to Cmax) and t½ (terminal elimination half-life), as the data permitted.
Log-transformed AUC(0-inf), AUC(0-tlast) and Cmax were each analyzed using a mixed effects model containing sequence, treatment (fed and fasted), and period as the fixed effects and subject (within sequence) as the random effect. The SAS procedure PROC MIXED was used for the analysis. Compound symmetry was assumed, and Restricted Maximum Likelihood Estimates (REML) were utilized.
For AUC(0-inf), AUC(0-tlast) and Cmax, on the natural log scale, estimates of the adjusted mean difference between grapiprant tablet under fed condition (test) and grapiprant under fasted condition (reference) and their corresponding 90% confidence intervals were calculated.
The anti-logs (exponent) of the difference and confidence interval were taken to estimate the mean ratio (relative bioavailability) and its corresponding 90% confidence interval. Vital signs, adverse events, ECG parameters, and safety laboratory values were summarized with descriptive statistics.

[1] = 375 mg tablets, adjusted geometric means, N = 12
[2] = 375 mg tablets, standard high-fat meal compared to fasted
[3] = 375 mg tablet-fed (high-fat meal)

For `CCc1nc2c(C)nc(C)cc2n1-c1ccc(CCNC(=O)NS(=O)(=O)c2ccc(C)cc2)cc1` [Grapiprant, N-((4-(2-ethyl-4,6-dimethyl-1H-imidazo[4,5-c]pyridin-1-yl)phenethyl)carbamoyl)-4-methylbenzenesulfonamide], the “Geometric Mean Ratio (fed/fasted) of AUC(0-inf)” value [1] was 87.48%, the “Geometric Mean Ratio (fed/fasted) of AUC(0-tlast)” value [1] was 87.42% and the “Geometric Mean Ratio (fed/fasted) of Cmax” value [1] was 64.16%. The “decrease in AUC” value [2] was 13%, the “decrease in Cmax” value [2] was 36% and the AUC(0-inf) (375 mg tablet-fasted) was 29100 ng·h/mL. For the same compound, the Cmax (375 mg tablet-fasted) was 8990 ng/mL, the AUC(0-t) (375 mg tablet-fasted) was 28900 ng·h/mL and the half-life (375 mg tablet-fasted) was 9.48 h. For the same compound, the Tmax (375 mg tablet-fasted) was 1 h, the AUC(0-inf) [3] was 24800 ng·h/mL and the Cmax [3] was 5840 ng/mL. The AUC(0-t) [3] was 24600 ng·h/mL, the half-life [3] was 8.52 h and the Tmax [3] was 4 h.
